Consider 1 molecule from article PMC6524651 (Cell chemical biology, 2018).

Each structure is given as a SMILES string.

Assay [1] relates to SUMOylation in HCT-116 cells. Kind of assay: Western blot of SUMOylated proteins. Particulars: 18 hours treatment. The assay is classed as cell-based, human. Background: Immunoblotting shows a protein as a band on a membrane.
In assay [2] the test system is miR-34b and c-Myc in lymphoma (Raji) and colorectal cancer (HCT116) cells. Kind of assay: RT-qPCR and Western blot of miR-34b and c-Myc in cancer cell lines. The assay is classed as cell-based, human. For orientation: Quantitative PCR measures a nucleic acid by following its amplification.
Assay [3] concerns the target T1, ubiquitin activating enzyme in HCT-116 cells (Homo sapiens, UniProt P22314).
T1 sequence (P22314 1-1058): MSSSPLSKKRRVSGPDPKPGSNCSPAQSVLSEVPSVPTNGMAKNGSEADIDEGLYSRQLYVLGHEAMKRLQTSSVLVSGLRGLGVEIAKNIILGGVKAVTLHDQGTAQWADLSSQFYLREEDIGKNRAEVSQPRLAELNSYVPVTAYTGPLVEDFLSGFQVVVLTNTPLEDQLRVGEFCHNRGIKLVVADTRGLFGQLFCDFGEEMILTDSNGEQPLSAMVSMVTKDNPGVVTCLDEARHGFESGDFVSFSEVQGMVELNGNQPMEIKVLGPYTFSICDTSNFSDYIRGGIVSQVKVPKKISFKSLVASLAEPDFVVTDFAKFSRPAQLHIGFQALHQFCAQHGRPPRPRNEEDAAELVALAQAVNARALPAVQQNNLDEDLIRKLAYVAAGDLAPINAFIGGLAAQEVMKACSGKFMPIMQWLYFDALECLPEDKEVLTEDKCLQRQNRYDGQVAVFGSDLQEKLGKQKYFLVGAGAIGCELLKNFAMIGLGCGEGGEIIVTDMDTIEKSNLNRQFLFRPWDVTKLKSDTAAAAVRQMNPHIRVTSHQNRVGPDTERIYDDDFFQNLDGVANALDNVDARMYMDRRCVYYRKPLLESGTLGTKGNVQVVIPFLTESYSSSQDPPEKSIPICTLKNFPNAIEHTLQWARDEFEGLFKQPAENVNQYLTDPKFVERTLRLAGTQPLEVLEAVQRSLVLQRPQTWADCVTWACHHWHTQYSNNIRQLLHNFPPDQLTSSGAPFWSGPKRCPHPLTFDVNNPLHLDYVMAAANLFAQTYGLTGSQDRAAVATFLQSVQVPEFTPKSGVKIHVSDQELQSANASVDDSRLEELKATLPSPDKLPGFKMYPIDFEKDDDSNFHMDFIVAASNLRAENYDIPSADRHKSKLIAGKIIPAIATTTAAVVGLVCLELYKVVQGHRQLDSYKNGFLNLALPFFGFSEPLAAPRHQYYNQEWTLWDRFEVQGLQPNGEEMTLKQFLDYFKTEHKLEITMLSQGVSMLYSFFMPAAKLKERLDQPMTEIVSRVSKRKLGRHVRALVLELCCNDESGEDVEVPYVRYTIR
Description: Western blot of ubiquitin•Ubc5 thioester formation in cells. The assay is classed as cell-based. Particulars: HCT-116 cell lysates.

The next assay concerns the target T2, SUMO E1 C30S mutant (Homo sapiens, UniProt Q9UBT2, C30S).
T2 sequence (Q9UBT2 1-640 C30S): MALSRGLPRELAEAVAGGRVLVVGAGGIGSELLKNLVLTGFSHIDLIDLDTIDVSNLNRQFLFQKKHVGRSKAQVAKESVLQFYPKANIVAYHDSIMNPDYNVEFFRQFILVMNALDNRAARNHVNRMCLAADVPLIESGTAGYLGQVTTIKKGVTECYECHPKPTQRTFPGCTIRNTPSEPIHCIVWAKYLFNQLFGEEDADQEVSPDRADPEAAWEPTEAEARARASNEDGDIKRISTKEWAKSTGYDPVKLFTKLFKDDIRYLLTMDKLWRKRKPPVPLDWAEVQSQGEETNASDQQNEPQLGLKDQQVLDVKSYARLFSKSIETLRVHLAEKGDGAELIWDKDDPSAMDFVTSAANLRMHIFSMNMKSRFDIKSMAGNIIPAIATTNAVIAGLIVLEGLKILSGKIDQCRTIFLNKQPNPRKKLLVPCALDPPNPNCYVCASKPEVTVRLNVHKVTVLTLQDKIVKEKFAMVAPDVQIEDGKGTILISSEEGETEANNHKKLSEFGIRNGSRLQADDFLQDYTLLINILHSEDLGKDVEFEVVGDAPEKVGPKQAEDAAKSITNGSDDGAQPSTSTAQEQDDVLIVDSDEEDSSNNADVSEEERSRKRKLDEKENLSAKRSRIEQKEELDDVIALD
T2 sequence (Q9UBE0 1-346 partner): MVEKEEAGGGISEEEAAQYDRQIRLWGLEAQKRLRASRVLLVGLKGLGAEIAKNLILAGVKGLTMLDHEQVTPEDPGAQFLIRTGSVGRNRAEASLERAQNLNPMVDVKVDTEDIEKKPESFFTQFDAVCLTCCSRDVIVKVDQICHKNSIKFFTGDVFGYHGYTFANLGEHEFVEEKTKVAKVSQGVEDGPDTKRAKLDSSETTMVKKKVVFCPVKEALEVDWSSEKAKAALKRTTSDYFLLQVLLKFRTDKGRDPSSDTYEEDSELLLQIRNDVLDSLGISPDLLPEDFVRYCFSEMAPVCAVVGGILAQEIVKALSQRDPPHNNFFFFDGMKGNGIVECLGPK
The assay is classed as biochemical. Particulars: 0.25 μM E1 C30S, 15 minutes at 37 °C.

Another assay has as its system HCT-116 cell xenograft. Description: HCT116 xenograft in plasma esterase-deficient SCID mice. The class given is in vivo, mouse (Es1e/SCID).
The target in assay [4] is SUMO E1 (SAE) adenylation step (Homo sapiens, UniProt Q9UBT2). Kind of assay: ATP:PPi isotope exchange assay of the adenylation step.
The subject of a further assay is HCT-116 cells. Description: Apoptosis by flow cytometry. The class given is cell-based, human. Particulars: 10 μM for 20 h. (In flow cytometry, cells or beads pass a laser one at a time.)
Setting [5] is: 10 mg/kg s.c. peritumoral once a day, 14 days.

Sequence of SUMO E1 (SAE) adenylation step (Q9UBT2 whole entry, one chain of several): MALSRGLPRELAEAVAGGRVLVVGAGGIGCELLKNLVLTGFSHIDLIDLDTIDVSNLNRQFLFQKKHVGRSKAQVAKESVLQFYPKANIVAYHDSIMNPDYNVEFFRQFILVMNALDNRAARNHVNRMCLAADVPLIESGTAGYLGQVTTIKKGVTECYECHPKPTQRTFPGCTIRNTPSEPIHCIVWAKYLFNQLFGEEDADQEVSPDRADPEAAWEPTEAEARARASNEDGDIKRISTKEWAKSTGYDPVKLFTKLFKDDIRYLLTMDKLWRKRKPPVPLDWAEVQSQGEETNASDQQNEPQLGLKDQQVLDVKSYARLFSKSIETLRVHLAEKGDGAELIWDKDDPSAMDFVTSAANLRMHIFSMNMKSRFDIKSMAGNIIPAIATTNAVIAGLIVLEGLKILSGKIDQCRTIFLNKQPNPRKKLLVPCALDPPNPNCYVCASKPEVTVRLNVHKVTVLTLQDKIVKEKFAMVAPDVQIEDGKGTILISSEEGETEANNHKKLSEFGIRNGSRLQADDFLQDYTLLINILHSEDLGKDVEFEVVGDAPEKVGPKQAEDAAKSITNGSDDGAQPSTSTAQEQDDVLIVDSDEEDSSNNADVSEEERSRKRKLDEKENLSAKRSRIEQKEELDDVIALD

For `COC(=O)C1=C(C(=O)OC)C2([C@@H](Cc3ccc(C)cc3)Nc3ccccc3)C=CC1O2` (stereo partly drawn) [COH000, dimethyl 1-((R)-1-(phenylamino)-2-(p-tolyl)ethyl)7-oxabicyclo[2.2.1]hepta-2,5-diene-2,3-dicarboxylate], the SUMOylation in cells entry in assay [1] is given as “inhibited SUMOylation in a dose-dependent manner”. Also, in assay [2] (2 days of treatment, RT-qPCR), the miR-34b expression entry is listed as “increased the expression of miR-34b”. Moreover, in assay [2] (RT-qPCR and Western blot), the “c-Myc mRNA and protein levels” value was “reduced c-Myc mRNA and protein levels”. The “ubiquitin•Ubc5 thioester formation in cells” value in assay [3] is listed as “did not inhibit the homologous enzymes catalyzing ubiquitylation or NEDDylation”. Also, at SUMO E1 C30S mutant, the “inhibition of Ubc9•SUMO thioester formation, C30S mutant” value is “the C30S mutant was not”. Also, in the assay on HCT-116 cell xenograft (setting [5]), the “SAE2 levels in tumor tissues (IHC)” value is “significantly reduced SAE2 levels in tumor tissues”, the “apoptosis in tumor tissue (TUNEL)” value is “increased apoptosis”, the “c-Myc protein level in tumor (IHC)” value is listed as “The c-Myc protein level was reduced” and the tumor growth entry is reported as “significantly inhibited tumor growth”. Moreover, the “miR-34b level in tumor tissues” value with HCT-116 cell xenograft (COH000-treated vs vehicle-treated mice) is on record as “miR-34b level is higher in tumor tissues”. Further, in assay [4] (COH000 0–2 μM), the “effect on SUMO adenylation (32PPi:ATP isotope exchange)” value is “inhibited SUMO adenylation”. Also, in assay [4] (increasing concentrations of ATP or SUMO1), the “effect of increasing ATP or SUMO1 on the inhibition of adenylation” value is listed as “not overcome with increasing concentrations of ATP or SUMO1”. For the same molecule, the apoptosis entry in the assay on HCT-116 cells is listed as “consistently induced apoptosis”.
